The text below walks through data of patent US8361970B2, “Growth factor binding molecules” (University of South Florida, priority 2000, dated 2013).

What all share (type): cell-based
Experiment [1] concerns EGF-stimulated EGFR tyrosine phosphorylation and Erk1/Erk2 activation. The experiment in a line: EGF-stimulated EGFR tyrosine phosphorylation and Erk1/Erk2 activation in NIH 3T3 cells overexpressing EGFR. The settings on record: GFB-111 at concentrations as high as 100 μM. On the procedure:
(§1) Starved NIII 3T3 cells (PDGF-BB and PDGF-AA), NIH 3T3 cells overexpressing either EGFR (EGF) or Flk-1 (VEGF) are pre-treated with the indicated concentrations of GFB-111 for 5 minutes before 10 minutes of stimulation with PDGF-BB (10 ng/ml), PDGF-AA (10 ng/ml), EGF (100 ng/ml) and VEGF (50 ng/ml). Cell lysates are run on SDS-PAGE gels, then transferred to nitrocellulose and Western blotted with anti-phosphotyrosine (4G 10) or anti-phosphorylated Erk1/Erk2 (New England Biolabs).

Experiment [2] has as its system VEGF-stimulated MAP kinase activation. Kind of experiment: Inhibition of VEGF-stimulated MAP kinase (p42/p44, Erk2/Erk1) activation in Flk-1/3T3 cells. The settings on record: Flk-1/3T3, VEGF stimulated. On the procedure: as §1
(§2) In other experiments, starved NIH 3T3 cells (PDGF-AA, PDGF-BB, aFGF, bFGF), NIH 3T3 cells overexpressing EGFR. IGF-1R or Flk-1 and the human breast carcinoma SkBr3 that overexpresses ErbB2 (HRGβ) are pretreated with GFB-111 (100 μM) for 5 min before 10 min stimulation with the indicated growth factors at the concentrations shown above and aFGF (10 ng/ml), bFGF (50 ng/ml), IGF-1 (50 ng/ml) and HRGβ (10 ng/ml). Cell lysates are then immunoblotted with anti-phospho Erk1/Erk2 as described above.
(§3) In order to identify molecules that would bind vascular endothelial growth factor (VEGF), Flk-1/3T3 cell-based assay is used that relies on VEGF-stimulation of its receptor, Flk-1, tyrosine phosphorylation and subsequent MAP-kinase activation. The assay used herein identical to that used for PDGF, except that NIH 3T3 cells that overexpress Flk-1 are used. GFB-116, which has four identical loops with the sequence GKGK (SEQ ID NO. 10) is shown to be very potent and selective toward blocking the ability of VEGF to stimulate Flk-1 tyrosine phosphorylation and subsequent MAP-kinase activation as measured by phospho erk-1 and erk-2 also referred to in the Table as p42 and p44 (Table 4A). A preferred embodiment of the invention is a compound that binds to a vascular endothelial growth factor, of the general structure III (above) in which R is n-butyl, n-propyl, or benzyl, and X comprise covalently attached identical cyclic peptide loops wherein R1, R2, R3, and R4 are each amino acid side chains, as broadly defined above, that define a tetrapeptide sequence, wherein said tetrapeptide is covalently attached at the amino and carboxy termini of said tetrapeptide to 3-aminomethyl-5-aminobenzamide linking group, and wherein said tetrapeptide sequence is GKGK (SEQ ID NO. 10), GDGY (SEQ ID NO. 6), or functionally related derivatives thereof.

Experiment [3] concerns VEGF-stimulated Flk-1 tyrosine phosphorylation. Kind of experiment: Inhibition of VEGF-stimulated Flk-1 tyrosine phosphorylation in Flk-1/3T3 cells. The settings on record: Flk-1/3T3, VEGF stimulated; read-out: (IC50) Inhibition Flk-1-Y-P. As to the method: as §1, §3
Experiment [4] deals with PDGF-stimulated Erk1/Erk2 activation. The experiment in a line: Inhibition of PDGF-stimulated activation of MAPK Erk1/Erk2 (p44/p42) in NIH 3T3 cells. Conditions: NIH 3T3, PDGF stimulated; head p42/Erk2 (p42 for GFB-132 to 137); read-out: (IC50) Inhibition p42/Erk2. As to the method:
as §1, §2

Experiment [5] has as its system aFGF-stimulated MAP kinase activation of p42 and p44. Kind of experiment: Inhibition of aFGF stimulation of p42/p44 MAP kinase in NIH 3T3 cells. Conditions: NIH 3T3. On the procedure:
as §2
The ability of growth factor binding agents in the library of growth factor binding agents to block an aFGF signal is measured by aFGF-stimulation of MAP kinase activation of p42 and p44 essentially as described above for VEGF. NIH 3T3 cells are used as the target cell. […] A preferred embodiment of the invention is a compound that binds to acidic fibroblast growth factor, of the general structure III, in which R is n-butyl, n-propyl, or benzyl, and X1, X2, X3, and X4 optionally comprise covalently attached cyclic peptide loops of the general structure II, wherein R1, R2, R3, and R4 are each amino acid side chains that define a tetrapeptide sequence, wherein said tetrapeptide is covalently attached at the amino and carboxy termini of said tetrapeptide to a 3-aminomethyl-5-aminobenzamide linking group, and wherein said tetrapeptide sequence is as given, for example, in Table 5.

Experiment [6] relates to PDGF-stimulated PDGFR tyrosine phosphorylation. The experiment in a line: Inhibition of PDGF-stimulated PDGFR tyrosine phosphorylation in NIH 3T3 cells (anti-phosphotyrosine Western blot). Conditions: 5 min pretreatment, PDGF 10 ng/ml 10 min, read-out: (IC50) Inhibition PDGFR-Y-P. On the procedure:
Starved NIH 3T3 cells are pretreated with various growth factor binding agents (0-100 μM) for 5 min before stimulation with PDGF (10 ng/mL) for 10 min. The cells are then harvested and lysed, and the proteins from the lysates separated by SDS-PAGE and immunoblotted with an anti-phosphotyrosine antibody (4G10: Upstate Biotechnology, Lake Placid, N.Y.). The phosphotyrosine PDGF receptor bands are scanned, and the concentrations of growth factor binding molecules that inhibited the ability of PDGF to stimulate PDGFR tyrosine phosphorylation by 50% are determined.
as §1
A novel series of protein surface binding agents are prepared that bind PDGF and disrupt its signaling function. The molecules are composed of a central calix[4] arene scaffold to which is attached four peptide loop domains (FIG. 1). The peptide loop component is based on a cyclic hexapeptide in which two residues are replaced by a 3-aminomethylbenzoate dipeptide mimetic containing a 5-amino substituent for attachment to the scaffold. The resulting molecules (as shown in Table 1) contain a functionalized and variable surface approximately 500 Å^2 in area. Several peptide loop sequences are synthesized (Table 1) to provide molecular surfaces with negatively and positively charged as well as hydrophobic regions designed to bind to complementary areas on the target growth factor. To identify PDGF binding molecules from this library, a cell-based screening assay is developed with NIH 3T3 cells to detect molecules capable of blocking PDGF-BB-induced tyrosine autophosphorylation of the PDGF receptor. The ability of the identified molecules to bind PDGF-BB and inhibit interaction with its receptor is then confirmed biochemically. Starved NIH 3T3 cells are pretreated for 5 min with the synthetic molecules prior to stimulation with PDGF for 10 min. The effects of the molecules on PDGF-stimulated receptor tyrosine phosphorylation are determined by the antiphosphotyrosine Western blotting as described in Table 1. […] GFB-111 has four-fold symmetry containing 4 identical peptide loops with negative and hydrophobic residues, GlyAspGlyTyr (GDGY) (SEQ ID NO. 6), that are designed to be complementary to the PDGF surface involved in binding to PDGFR. The area of PDGF-BB that binds PDGFR is composed primarily of positive and hydrophobic residues.
Starved NIH 3T3 cells are pretreated with the various GFBs (0-100 μM) for 5 min. prior to stimulation with PDGF (10 ng/ml) for 10 min. The cells are then harvested lysed and the proteins from the lysates are separated by SDS-PAGE and immunoblotted with an anti-phosphotyrosine antibody (4G10, Upstate Biotechnology, Lake Placid, N.Y.). The phosphotyrosine PDGF receptor bands are scanned and the concentrations of GFBs that inhibit the ability of PDGF to stimulate PDGFR tyrosine phosphorylation by 50% are determined. Data for each compound is representative of at least two independent experiments. FIG. 1 illustrates the structure of growth factor binders. GFBs are synthesized as described by Park, H. D. et al., Protein surface recognition by synthetic receptors: A route to novel sub-micromolar inhibitors for chymotrypsin. J. Am. Chem. Soc. 121, 8-13 (1999); and Hamuro, Y. et al., A calixarene with four peptide loops: An antibody mimic for recognition of protein surfaces. Angew. Chemie Int. Ed. Engl. 36, 2680-2683 (1997), each herein incorporated by reference in its respective entirety.
For orientation: A western blot detects proteins with antibodies after separation by electrophoresis.

Experiment [7] concerns IGF-1 stimulated IGF-1R tyrosine phosphorylation. The experiment in a line: Inhibition of IGF-1 stimulated IGFR tyrosine phosphorylation in IGFR/3T3 cells. The settings on record: 100 μM; IGFR/3T3, IGF-1 stimulated. On the procedure: (§4) The ability of the GFB library to block the ability of IGF-1 to stimulate the IFG-1 R tyrosine phosphorylation and MAP kinase activation is evaluated using the cell assay described above with IGF-1R/3T3 cells as target cell. […] A preferred embodiment of the invention is a compound that binds to an insulin-like growth factor-1, of the general structure III, wherein R is n-butyl, n-propyl, or benzyl, and X1, X2, X3, and X4 optionally comprise identical cyclic peptide loops of the general structure II, and wherein R1, R2, R3, and R4 are each amino acid side chains that define a tetrapeptide sequence, wherein said tetrapeptide is covalently attached at the amino and carboxy termini of said tetrapeptide to a 3-aminomethyl-5-aminobenzamide linking group.

Experiment [8] deals with IGF-1 stimulated MAP kinase activation. The experiment in a line: Inhibition of IGF-1 stimulated MAP kinase (p42/p44) activation in IGFR/3T3 cells. Conditions: 100 μM; IGFR/3T3, IGF-1 stimulated. On the procedure: as §2, §4

Where “and” joins values, the source holds several entries; their conditions need not be identical. Identical values can stand only once. Like-named read-outs stand apart in the source and are kept apart here.

As a reminder, the % Inhibition is the drop in the measured response relative to a control, in per cent.

`CNc1cc2c(Nc3cccc(Br)c3)ncnc2cn1` [PD158780, reference compound]: the “Effect on EGF-stimulated EGFR tyrosine phosphorylation and Erk1/Erk2 activation” value in experiment [1] is recorded as “blocks”.
GDDD [GFB-106]: the IC50 in experiment [2] (read-out: (IC50) Inhibition p42) is less than 10 µM; in experiment [2] (read-out: (IC50) Inhibition p44), less than 10 µM; in experiment [3] it was less than 10 µM; in experiment [4], 33 µM; in experiment [6], 8 µM. Moreover, the “Block of aFGF-stimulation of MAP kinase activation of p42 and p44” value in experiment [5] is listed as “very effective”.
Turning to GDDG [GFB-127], the IC50 was more than 50 µM in experiment [4] and 32 µM in experiment [6]. The “Block of aFGF-stimulation of MAP kinase activation of p42 and p44” value in experiment [5] was “very effective”. For the same compound, the “% Inhibition at 100 μM IGF1R-Y-P” value in experiment [7] was 36.8% and 31.8%. Also, the “% Inhibition at 100 μM p42” value in experiment [8] was 38.4% and 27.2%. Besides, in experiment [8], the “% Inhibition at 100 μM p44” value is 61.6% and 74.4%.
